Several values for one entry are separate records, joined by “and”; a condition that tells them apart may be missing. Identical values can stand only once.
Tested on: decay organisms
Assay: soil contact veneer exposure test (Scots pine sapwood veneers part buried in damp compost, pulled by hand until failure)
Settings: for Half lives for chemicals tested as solutions in acetone, With RH-287 added / Half lives for chemicals tested as solutions in acetone, No addition (average time for failure to occur) / Half lives, With RH-287 added, expected value in parentheses / positive synergy: actual average time to failure compared with the estimated one: Example 1; for Half lives for chemicals tested as solutions in acetone, With RH-287 added: 1.00% fungicide plus 1.00% RH-287 in acetone; for Half lives for chemicals tested as solutions in acetone, No addition (average time for failure to occur): 2.00% fungicide alone in acetone, dip treated veneers, 6 replicates, compost about 30° C.; for Half lives, With RH-287 added, expected value in parentheses: expected additive value for 1.00% fungicide plus 1.00% RH-287, midway between the two 2.00% values; for positive synergy: actual average time to failure compared with the estimated one: combination of RH-287 with co-biocide, 1.00% each in acetone
Source text: It is preferable that the thickness of the veneers be greater than 0.1 mm, as veneers of lesser thickness can often be pulled apart by hand without undergoing exposure to decay organisms. Veneers which are thicker than 0.4 may take an excessive amount of time to fail the exposure test. In one embodiment, the thickness of the veneers is about 0.2 mm and the wood is the sapwood of the Scots pine (Pinus sylvestris). Other woods and thicknesses can be used. […] For example, 0.2 mm thick Scots pine sapwood veneers which are exposed as outlined below generally fail in 5 weeks or less. An example of convenient width and length dimensions are 15×50 mm. However, width and length are not critical, although very large or small length or width dimensions may be difficult to handle.
Accordingly, the test of the present invention comprises testing the integrity of a veneer after exposure to a decay-inducing environment. In one embodiment, this environment is damp compost in which decay organisms are present and water is present at just above the water holding capacity of the compost. If desired, other media can be used, and the test can be conducted at water contents which are below, at, or above the water-holding capacity of the media.
In general, the integrity of the veneer is inversely related to the length of exposure to the decay promoting environment. The integrity of the veneer can be tested by applying a force to the veneer and noting whether or not the veneer breaks. Thus, if wood preservative agents are applied to the veneers, these veneers would be expected to withstand longer exposure to the environment without breaking compared to control veneers without breaking.
The force applied to the veneers is preferably a force which pulls the two ends in opposite directions. The force can be applied by the use of an instrument or manually. If there is significant decay the veneer will break, generally near the junction between the portion submerged in the decay accelerating medium and the portion exposed to air. If the force is applied manually, it is preferable that the same individual conduct the test at the various exposure time points.
Veneers of Scots pine Pinus sylvestris (0.2 mm thick, 50×15 mm) sapwood are cut from test blocks as described in EN 113, a known standard test method in the European timber industry. The veneers were cut such that both late wood and early wood were present in each veneer. RH-287 was tested in combination with the following biocides: chlorothalonil, fenpropimorph, propiconazole, copper ( as copper naphthenate ), tridemorph, fenarimol, cyproconazole, Imazalil and dichlorophen.
Test solutions were prepared and sets of veneers were dip treated such that there were 6 replicate veneers for each treatment under investigation. Additionally six veneers were dip treated in deionised water to act as water controls. Being thin, the timber veneers dried quickly. Plastic containers (approximately 350×220 mm by at least 60 mm high) were part filled with John Innes Number 2 potting compost at a little above its water holding capacity. The veneers for a particular test were placed in six rows within a container such that approximately half the veneer was below the compost and half above. The veneers were placed in the compost such than those given a particular treatment were distributed throughout the container and were not grouped together. The containers, compost and veneers were weighed then incubated at about 30° C. and near 100% relative humidity in an incubator. Each week during the test the assembly was reweighed and deionised water added to bring it back to its original mass. After 3 weeks each veneer was examined in turn. It was held between the fingers at each end and pulled to see if it could be broken. If it could be pulled apart a failure was recorded. If the veneer was sound, this was recorded and the veneer was returned to its original position. […]

[1] = Example 3, solutions in acetone
[2] = Example 4, solutions in acetone

Row | Compound | Half lives for chemicals tested as solutions in acetone, With RH-287 added | Half lives for chemicals tested as solutions in acetone, No addition (average time for failure to occur) | Half lives, With RH-287 added, expected value in parentheses | also measured
1 | OC(c1ccc(Cl)cc1)(c1cncnc1)c1ccccc1Cl (racemic) [Fenarimol, (±)-2,4′-dichloro-α-(pyrimidin-5-yl) benzhydryl alcohol] | 17.17 weeks | 5.50 weeks | (15.34 weeks) | –
2 | CC(Cc1ccc(C(C)(C)C)cc1)CN1C[C@@H](C)O[C@@H](C)C1 (mixture of isomers) [Fenpropimorph, (±)-cis-4-[3-(4-tert-butylphenyl)-2-nethylpropyl]-2,6-dimethyl=morpholine] | 21.17 weeks | 4.50 weeks | (14.84 weeks) | positive synergy: actual average time to failure compared with the estimated one: most marked
3 | CCCC1COC(Cn2cncn2)(c2ccc(Cl)cc2Cl)O1 (racemic) [Propiconazole, (±)-1-[2-(2,4-dichlorophenyl)-4-propyl-1,3-dioxolan-2-ylmethyl-=1H-1,2,4-triazol] | 20.50 weeks | 4.50 weeks | (14.84 weeks) | –
4 | N#Cc1c(Cl)c(Cl)c(Cl)c(C#N)c1Cl [Chlorothalonil, tetrachloroisophthalonitrile] | 22.50 weeks | 12.5 weeks and 12.50 weeks | – | Half lives for chemicals tested as solutions in acetone, No addition (average time for failure to occur) (listed as chlorothalonil): 12.5 weeks; Half lives, With RH-287 added, expected value in parentheses (listed as chlorothalonil): about 18.84 weeks
5 | CC(C1CC1)C(O)(Cn1cncn1)c1ccc(Cl)cc1 (stereo not drawn) [Cyproconazole, (2RS,3RS;2RS,3SR)-2-(4-chlorophenyl)-3-cyclopropyl-1-=(1H-1,2,4-trazol-1-yl)butan-2-ol] | 22.00 weeks | 5.17 weeks | (15.17 weeks) | positive synergy: actual average time to failure compared with the estimated one: most marked
6 | Oc1ccc(Cl)cc1Cc1cc(Cl)ccc1O [Dichlorophen, 4.4′-dichloro-2,2′-methylenediphenol] | 24.17 weeks | 16.00 weeks | (20.59 weeks) | Half life for 0.8% fungicide plus 0.8% RH-287, expected value in parentheses (Example 3, expected additive value): {13.83 weeks}; Half life for 0.8% fungicide plus 0.8% RH-287 [1]: 15.33 weeks; Half life for fungicide at 0.8% active ingredient [1]: 8.67 weeks; Half life for fungicide at 1.60% active ingredient (ai) [1]: 10.83 weeks
7 | CCCCCCCCn1sc(Cl)c(Cl)c1=O [RH-287, 4,5 dichloro-2-n-octyl-4-isothiazolin-3-one] | – | 25.17 weeks | – | Half life for fungicide at 2.00% active ingredient (ai) (Example 2, solutions in acetone): 22.50 weeks; Half life for fungicide at 0.8% active ingredient [1]: 10.00 weeks; Half life for fungicide at 1.60% active ingredient (ai) [1]: 16.83 weeks; Half life for fungicide at 0.8% active ingredient [2]: 12.17 weeks; Half life for fungicide at 1.60% active ingredient (ai) [2]: 16.67 weeks; relationship between concentration of RH-287 and veneer half life (Example 5, up to about 2% RH-287 in acetone (FIG. 1)): corresponding increase in the half life
8 | CCCCCCCCCCCCCN1CC(C)OC(C)C1 (stereo not shown) [Tridemorph, 4-alkyl-2,6-dimethylmorpholine] | 17.50 weeks | 4.33 weeks | (14.75 weeks) | –
9 | Copper naphthenate [Copper (as Copper Naphthenate)] | 21.50 weeks | 16.67 weeks | – | –

Source: patent US20090004497A1, “Wood Preservative Formulations Comprising Rh-287” (priority 2006, published 2009)
